# Laboratory results from patent US20020114804A1, “A METHOD OF TREATING INFECTION OF SUTURES AND PROSTHETIC DEVICES” (priority 1996, published 2002).
# What was measured:
# Assay type in all cases: cell-based, human
# PMNs [1] = assay: PMN migration through gels of Matrigel or collagen IV; settings: added to the bottom chamber
# Description: (§1) Becton-Dickinson cell culture inserts (pore sizes 3 or 8 μm: Franklin Lakes, N.J.) were overlaid with the following proteins:
# Collagen type IV and Matrigel matrices: 0.1 ml PBS containing 100 μg human placental collagen IV (Fluka Chemical Corp., Ronkonkoma, N.Y.), or 80 μg of reconstituted basement membrane proteins (Matrigel, Collaborative Research, Bedford, Mass.), was placed into each insert and allowed to gel at room temperature for 24 hrs.
# (§2) PMNs were prepared from fresh heparinized blood from healthy adult volunteers by sedimentation on Ficoll-Hypaque gradients. Contaminating red blood cells were removed by hypotonic lysis, as described (7). The purity of PMN isolated by this method is >95% as determined by Wright-Giemsa staining (7). 10^6 PMNs in 250 μl of PBS supplemented with 5.5 mM glucose and 0.1% human serum albumin (PBSG-HSA), were placed in the upper compartment of each insert and incubated for 0-6 hrs at 37° C. in a humidified atmosphere containing 95% air/5% CO2. At the times and concentrations specified, chemoattractants/cytokines were added to the top or bottom compartment in 250 μl of PBSG-HSA. […] The medium in each lower compartment was collected and its content of PMNs was determined using either a Coulter Counter or a hemocytometer. […] Counts are expressed as the average number of PMNs that migrated into the lower compartment. […]
# monocytes [2] = assay: Monocyte migration through Matrigel or Matrigel/tenascin coated filters; settings: Matrigel alone
# Source text: Mononuclear cells were isolated by centrifugation of heparinized human blood on Ficoll-Hypaque gradients as described (65, 66). The mononuclear cell fraction was resuspended in RMPI 1640 medium supplemented with 10% pooled human serum or autologous serum and used immediately for monocyte migration studies. For some experiments, monocytes were obtained by centrifugation of whole blood or of white blood cells concentrated from a unit of blood (leukopak), on Nycodenz gradients as described (39). More than 90% of the nucleated cells obtained by this Nycodenz method were monocytes, as assessed by their ability to phagocytose IgG-coated red blood cells.
# (§3) Cultured monocytes were prepared by allowing 10^7 total mononuclear cells, suspended in 10 ml of RMPI 1640 medium supplemented with 10% pooled human serum (1640+HS), or 10% autologous serum (1640+AS), to adhere to Falcon T-150 tissue culture Petri dishes for 2 h at 37° C. Non-adherent cells were removed by washing, leaving an adherent cell population consisting of greater than 98% monocytes as measured by their capacity to phagocytose IgG coated sheep red blood cells. For migration studies, monocytes were maintained in culture for 24 h in RPMI 1640+HS or AS, and detached from the dishes by gentle pipetting of 10 ml of ice cold phosphate buffered saline (without Ca^2+ or Mg^2+) containing 1.0 mM EDTA. The cells recovered were resuspended in RPMI-1640+HS as described (65).
# Cell culture inserts containing polyethylene terephthalate filters, 8-μm pore size (Becton-Dickinson), were overlaid with 0.1 ml of Matrigel (20-25 μg protein/filter) (Collaborative Research, Bedford, Mass.), and incubated at room temperature until they dried. These Matrigel-coated filters were washed with phosphate buffered saline containing 1.0 mM Mg^2+ and 1.0 mM Ca^2+ (PBS). 0.1 ml of a PBS solution (pH 7.2) containing the indicated amount of purified chick brain tenascin was added to some of the inserts. The filters were incubated at room temperature until they dried. These protein-coated filters were washed again with PBS and used within 12 h for cell migration studies. To prepare collagen I-coated inserts, filters were coated with rat tail collagen I (ICN Biochemicals, Costa, Mesa, Calif.) (400 μg/ml in PBS), by adding 0.1 ml of this solution to an insert and incubating the inserts at room temperature for 24 h. Some of these collagen I-coated filters were then incubated with tenascin as described above.
# Monocytes: Cell culture inserts were placed in 16 mm wells containing 0.5 mls of RPMI-1640+HS or AS in the presence or absence of a chemoattractant. 0.5 ml of RPMI-1640+HS or AS serum containing between 2-10×10^5 mononuclear phagocytes was added to the upper chamber of the inserts and the inserts were placed in a humidified CO2 incubator at 37° C. After 24 h the medium in the lower chamber was recovered and its cell content assayed using either a Coulter counter or a hemocytometer. […] Cell counts reported are the average number of cells recovered from the medium in the lower compartment of chemotaxis chambers. Over 90% of the cells in the lower chamber were identified as monocytes based on their morphology, their capacity to phagocytose IgG coated sheep red cells, and their staining with fluorescein-conjugated anti α,β monoclonal antibody (Oncogene Sciences, Uniondale, N.Y.). Unless otherwise indicated, all values are the average of duplicate samples run in parallel in a representative experiment. Each experiment was repeated at least three times with similar results.
# PMNs [3] = assay: PMN migration through plasma clots (plasma gels); settings: chemoattractant in lower compartment, 6 hrs
# Description: as §1
# Clotted Plasma: Whole blood was collected and the cellular components were removed by centrifugation. The resulting plasma was mixed with an equal volume of PBS, and 100 μl of this mixture was placed into each insert containing thrombin and allowed to clot as described above. One unit of PPACK in 100 μl PBS then was added and the inserts were washed with 250 μl of PBS.
# as §2, with “CO2.” for “CO2. At the times and concentrations specified, chemoattractants/cytokines were added to the top or bottom compartment in 250 μl of PBSG-HSA.”
# monocytes [4] = assay: Monocyte migration through collagen I coated inserts; settings: collagen I alone, 24 h
# Description: as §3
# Cell culture inserts containing polyethylene terephthalate filters, 8-μm pore size (Becton-Dickinson), were overlaid with 0.1 ml of Matrigel (20-25 μg protein/filter) (Collaborative Research, Bedford, Mass.), and incubated at room temperature until they dried. These Matrigel-coated filters were washed with phosphate buffered saline containing 1.0 mM Mg^2+ and 1.0 mM Ca^2+ (PBS). 0.1 ml of a PBS solution (pH 7.2) containing the indicated amount of purified chick brain tenascin was added to some of the inserts. The filters were incubated at room temperature until they dried. […]
smiles,measurement,setting,value
"CCCCC/C=C\C[C@@H](O)/C=C/C=C/C=C\[C@@H](O)CCCC(=O)O [LTB4, leukotriene B4]",PMN migration through gels of Matrigel or collagen IV,PMNs [1],stimulated PMN migration
same,Cultured monocytes that migrated through Matrigel-coated inserts,monocytes [2],~15%
same,Freshly isolated human monocytes that migrated through Matrigel-coated inserts,monocytes [2],About 20%
same,PMN migration through plasma gels formed by thrombin treatment of human plasma,PMNs [3],migrated
same,Monocytes that migrated through inserts coated with collagen I,monocytes [4],18%
